Experimental findings from paper PMC5511029 (Journal of molecular biology, 2017) are described below.

This experiment concerns the target E. coli cysteinyl-tRNA synthetase (EcCysRS) (Escherichia coli, UniProt P21888). Nature of the experiment: aminoacylation of E. coli tRNA-Cys with […]-Cys by purified CysRS. The format is biochemical.

E. coli cysteinyl-tRNA synthetase (EcCysRS), sequence (P21888 whole entry): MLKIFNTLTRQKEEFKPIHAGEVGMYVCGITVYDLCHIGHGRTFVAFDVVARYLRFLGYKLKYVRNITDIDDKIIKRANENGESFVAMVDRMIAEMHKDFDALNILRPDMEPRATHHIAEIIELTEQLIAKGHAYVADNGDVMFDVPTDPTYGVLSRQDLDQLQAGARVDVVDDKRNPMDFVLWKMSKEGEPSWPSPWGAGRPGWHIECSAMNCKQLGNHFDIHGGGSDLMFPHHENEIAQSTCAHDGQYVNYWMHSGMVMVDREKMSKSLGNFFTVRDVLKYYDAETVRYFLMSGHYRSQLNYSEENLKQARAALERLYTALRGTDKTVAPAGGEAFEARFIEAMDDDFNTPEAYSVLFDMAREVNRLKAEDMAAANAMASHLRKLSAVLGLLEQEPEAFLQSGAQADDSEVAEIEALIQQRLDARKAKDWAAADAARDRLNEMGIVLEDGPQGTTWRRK

Broadly, the IC50 is the concentration that gives 50% inhibition. A high value points to a need for much substance. `Nc1ncnc2c1ncn2[C@@H]1O[C@H](COS(=O)(=O)NC(=O)[C@@H](N)CS)[C@@H](O)[C@H]1O` [Cys-AMS] displayed a concentration for half-maximal inhibition (IC50) of less than 0.6 µM.
